System: TRIM24-MET-i cells
Details: GSEA v. DMSO
Protocol: The number of unique and shared differentially expressed genes between each comparison are shown in parentheses. A linear regression line is depicted along with Pearson’s correlation coefficient (r) and its associated p-value. […] Common negatively enriched genesets between all three comparisons are in bold. c, Heatmaps showing expression of Hallmark_Myc_Target_v1/2 genes for indicated cells and treatment comparisons (TRIM-MET cells were treated in vitro, TFG-MET cells in vivo). Select leading edge genes from GSEA are labeled.

CNC(=O)c1ccc(-c2cnc3ncc(Cc4ccc5ncccc5c4)n3n2)cc1F [Capmatinib]
ES GOBP_NCRNA_METABOLIC_PROCESS: -0.6039
ES GOBP_RIBONUCLEOPROTEIN_COMPLEX_BIOGENESIS: -0.6363
ES GOBP_RIBOSOME_BIOGENESIS: -0.7035
ES GOBP_RRNA_METABOLIC_PROCESS: -0.6814
ES GOCC_90S_PRERIBOSOME: -0.8257
ES GOCC_NUCLEOLUS: -0.4698
ES GOCC_PRERIBOSOME: -0.8127
ES GOCC_RIBONUCLEOPROTEIN_COMPLEX: -0.4981
ES GOCC_SMALL_SUBUNIT_PROCESSOME: -0.8233
ES GOMF_CATALYTIC_ACTIVITY_ACTING_ON_RNA: -0.4916
ES GOMF_HYDROLASE_ACTIVITY_ACTING_ON_ACID_ANHYDRIDES: -0.3694
ES GOMF_MRNA_BINDING: -0.4686
ES GOMF_RIBONUCLEOPROTEIN_COMPLEX_BINDING: -0.568
ES GOMF_SNORNA_BINDING: -0.8035
ES HALLMARK_ADIPOGENESIS: -0.2484
ES HALLMARK_ALLOGRAFT_REJECTION: -0.3747
ES HALLMARK_ANDROGEN_RESPONSE: -0.535
ES HALLMARK_ANGIOGENESIS: -0.5762
ES HALLMARK_APICAL_JUNCTION: -0.2832
ES HALLMARK_APICAL_SURFACE: 0.5506
ES HALLMARK_APOPTOSIS: -0.4219
ES HALLMARK_BILE_ACID_METABOLISM: 0.4031
ES HALLMARK_CHOLESTEROL_HOMEOSTASIS: -0.4011
ES HALLMARK_COAGULATION: -0.4551
ES HALLMARK_COMPLEMENT: -0.4981
ES HALLMARK_DNA_REPAIR: -0.2565
ES HALLMARK_E2F_TARGETS: -0.3059
ES HALLMARK_EPITHELIAL_MESENCHYMAL_TRANSITION: -0.2783
ES HALLMARK_ESTROGEN_RESPONSE_EARLY: -0.385
ES HALLMARK_ESTROGEN_RESPONSE_LATE: -0.2661
ES HALLMARK_FATTY_ACID_METABOLISM: 0.234
ES HALLMARK_G2M_CHECKPOINT: -0.3396
ES HALLMARK_GLYCOLYSIS: -0.3498
ES HALLMARK_HEDGEHOG_SIGNALING: -0.4541
ES HALLMARK_HEME_METABOLISM: 0.2869
ES HALLMARK_HYPOXIA: -0.3596
ES HALLMARK_IL2_STAT5_SIGNALING: -0.5259
ES HALLMARK_IL6_JAK_STAT3_SIGNALING: -0.2773
ES HALLMARK_INFLAMMATORY_RESPONSE: -0.4368
ES HALLMARK_INTERFERON_ALPHA_RESPONSE: 0.32
ES HALLMARK_INTERFERON_GAMMA_RESPONSE: -0.2553
ES HALLMARK_KRAS_SIGNALING_DN: 0.2731
ES HALLMARK_KRAS_SIGNALING_UP: -0.491
ES HALLMARK_MITOTIC_SPINDLE: -0.3333
ES HALLMARK_MTORC1_SIGNALING: -0.5528
ES HALLMARK_MYC_TARGETS_V1: -0.6393
ES HALLMARK_MYC_TARGETS_V2: -0.8185
ES HALLMARK_MYOGENESIS: -0.217
ES HALLMARK_NOTCH_SIGNALING: -0.4058
ES HALLMARK_OXIDATIVE_PHOSPHORYLATION: -0.3105
ES HALLMARK_P53_PATHWAY: -0.2547
ES HALLMARK_PANCREAS_BETA_CELLS: 0.3447
ES HALLMARK_PEROXISOME: 0.2566
ES HALLMARK_PI3K_AKT_MTOR_SIGNALING: -0.3267
ES HALLMARK_PROTEIN_SECRETION: -0.3279
ES HALLMARK_REACTIVE_OXYGEN_SPECIES_PATHWAY: -0.337
ES HALLMARK_SPERMATOGENESIS: 0.1852
ES HALLMARK_TGF_BETA_SIGNALING: -0.5788
ES HALLMARK_TNFA_SIGNALING_VIA_NFKB: -0.6019
ES HALLMARK_UV_RESPONSE_DN: -0.3389
ES HALLMARK_UV_RESPONSE_UP: -0.4065
ES HALLMARK_WNT_BETA_CATENIN_SIGNALING: -0.3938
ES HALLMARK_XENOBIOTIC_METABOLISM: 0.19
ES KRIGE_RESPONSE_TO_TOSEDOSTAT_6HR_DN: -0.5928
ES KRIGE_RESPONSE_TO_TOSEDOSTAT_24HR_DN: -0.6267
ES LEE_BMP2_TARGETS_DN: -0.6601
ES PUJANA_CHEK2_PCC_NETWORK: -0.5659
ES WEI_MYCN_TARGETS_WITH_E_BOX: -0.6789
NES GOBP_NCRNA_METABOLIC_PROCESS: -2.536
NES GOBP_NCRNA_PROCESSING: -2.602
NES GOBP_RIBONUCLEOPROTEIN_COMPLEX_BIOGENESIS: -2.684
NES GOBP_RIBOSOME_BIOGENESIS: -2.8623
NES GOBP_RRNA_METABOLIC_PROCESS: -2.7
NES GOCC_90S_PRERIBOSOME: -2.336
NES GOCC_NUCLEOLUS: -2.057
NES GOCC_PRERIBOSOME: -2.789
NES GOCC_RIBONUCLEOPROTEIN_COMPLEX: -2.151
NES GOCC_SMALL_SUBUNIT_PROCESSOME: -2.456
NES GOMF_CATALYTIC_ACTIVITY_ACTING_ON_RNA: -2.047
NES GOMF_HYDROLASE_ACTIVITY_ACTING_ON_ACID_ANHYDRIDES: -1.614
NES GOMF_MRNA_BINDING: -1.915
NES GOMF_RIBONUCLEOPROTEIN_COMPLEX_BINDING: -2.117
NES GOMF_SNORNA_BINDING: -2.308
